What is called IC50 is the concentration needed to halve the response being measured. In general, inhibition refers to the drop in the measured response relative to a control, in per cent.

One assay concerns the target T1, IRAK4 enzyme (Homo sapiens, UniProt Q9NWZ3).
T1 sequence (Q9NWZ3 1-460): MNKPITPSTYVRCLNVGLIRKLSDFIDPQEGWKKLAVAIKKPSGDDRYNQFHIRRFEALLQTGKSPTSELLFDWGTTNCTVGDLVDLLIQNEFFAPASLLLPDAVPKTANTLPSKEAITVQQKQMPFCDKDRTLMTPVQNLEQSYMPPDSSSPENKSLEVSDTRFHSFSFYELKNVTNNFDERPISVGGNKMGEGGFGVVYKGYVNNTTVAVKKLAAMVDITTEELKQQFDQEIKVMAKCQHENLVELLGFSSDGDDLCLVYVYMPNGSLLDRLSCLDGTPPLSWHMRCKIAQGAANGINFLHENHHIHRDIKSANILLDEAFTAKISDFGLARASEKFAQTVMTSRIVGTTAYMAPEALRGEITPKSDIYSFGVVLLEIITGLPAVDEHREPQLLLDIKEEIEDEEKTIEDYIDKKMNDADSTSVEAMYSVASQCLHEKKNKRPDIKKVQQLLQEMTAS
Kind of assay: IRAK4 enzyme inhibition degree (bead-based kinase assay, peptide substrate BMKC-2, 100 μM ATP). Format: biochemical. The settings on record: for inhibition at 1 µM: compound 1 μM. An outline of the steps: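 IRAK4 (0.4 ng/μl stock) preincubated 10 min with compound, then 6 μM BMKC-2 peptide with 100 μM ATP (mix concentrations) for 60 min at room temperature; EDTA stop. Phospho-Thr antibody with AlphaScreen donor/acceptor beads detected product; % inhibition versus controls, IC50 by non-linear regression.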

For assay [1], the system named is TNF-α secretion, peripheral blood mononuclear cells (PBMCs). Kind of assay: Suppression of TNF-α secretion in LPS-treated PBMCs (ELISA). The assay is classed as cell-based. The settings on record: PBMC, 100 ng/ml LPS, 24 hours, read-out: TNF-α, % inhibition degree. The procedure:
(§1) Peripheral blood mononuclear cells (PBMCs) isolated from whole blood were distributed in a 96-well plate. TNF-α was aliquoted at a density of 1×10^5 cells/well, IFN-α was aliquoted at a density of 2×10^5 cells/well, and TNF-α and IFN-α were treated with a compound diluted to 4-fold of a final concentration and totally cultured for 30 minutes. TNF-α was treated with 100 ng/ml lipopolysaccharide (LPS), IFN-α was treated with 500 nM ODN2216 (CpGTLR9 stimulator), and TNF-α and IFN-α were further cultured for 24 hours and 72 hours, respectively. An enzyme-linked immunosorbent assay (ELISA) was performed on TNF-α and IFN-α using an ELISA kit manufactured by BD Biosciences and an ELISA kit manufactured by PBL Assay Science, Inc., respectively. A cell supernatant and a standard drug were put into the ELISA plates and reacted for 2 hours. The plates were washed and a measurement antibody and streptavidin-HRP were sequentially added thereto. After the plates were washed, a TMB substrate was added thereto and reacted in a dark place. The reaction was stopped by adding a stop solution thereto, and the absorbance at 450 nm and 570 nm was measured using an absorber (OPTIMax tunable microplate reader, molecular devices). The experimental results are shown in [Table 2].

Assay [2] relates to IFN-α secretion, peripheral blood mononuclear cells (PBMCs). The assay can be described thus: Suppression of IFN-α secretion in ODN2216-treated PBMCs (ELISA). Format: cell-based. The settings on record: PBMC, 500 nM ODN2216, 72 hours, read-out: IFN-α, % inhibition degree. The procedure:
as §1
On the technique in general: ELISA stands for enzyme-linked immunosorbent assay.

The test system of assay [3] is NF-κB promoter, THP1-Lucia™ NF-κB cell line. The assay can be described thus: NF-κB promoter inhibition, THP1-Lucia NF-κB cell line. The settings on record: 100 ng/ml LPS, 24 hours, read-out: NF-κB, % inhibition degree. The assay is classed as cell-based. How it is done:
(§2) A THP1-Lucia™ NF-κB cell line (Invivogen) was used in an NF-κB inhibition experiment, and a THP1-Lucia™ ISG cell line was used in an ISG inhibition experiment. In the NF-κB inhibition experiment, cells were planted at a density of 1×10^4 cells/well in a 96-well plate, and in the ISG inhibition experiment, cells were planted at a density of 2×10^4 cells/well in a 96-well plate. The cells were treated with a compound diluted to 4-fold of a final concentration, and totally cultured for 30 minutes. NF-κB was treated with 100 ng/ml lipopolysaccharide (LPS), ISG was treated with a stimulator of 1 μg/ml Poly(dA:dT)/LyoVec, and NF-κB and ISG were cultured for 24 hours. 10 μl of a cell supernatant was taken and transferred to a 96-well plate. 50 μl of a Quanti-luc solution was aliquoted using an automatic aliquoter of a measurer (Envision Multilabel Plate Reader, Perkin Elmer, Inc.), and light emission signals were measured.

Assay [4] has as its system ISG promoter, THP1-Lucia™ ISG cell line. The assay can be described thus: ISG promoter inhibition, THP1-Lucia ISG cell line. The assay is classed as cell-based. The settings on record: 1 μg/ml Poly(dA:dT)/LyoVec, 24 hours, read-out: ISG, % inhibition degree. How it is done: as §2

With `Cn1cc(-c2ccc3[nH]c4ncnc(N[C@H]5CC[C@H](N(C)C)CC5)c4c3c2)cn1` [Compound 6abb, trans-N1,N1-dimethyl-N4-(6-(1-methyl-1H-pyrazol-4-yl)-9H-pyrimido[4,5-b]indol-4-yl)cyclohexane-1,4-diamine], on IRAK4 enzyme, the IC50 was 0.01 µM. Further, the inhibition at 1 µM against IRAK4 enzyme was determined as 82%; in assay [1] it was 79.4%; in assay [2], 90.4%; in assay [3], 83%; in assay [4], 73%. Also, the inhibition at 0.1 µM in assay [1] turned out to be 17.9%; in assay [2] it was 54%; in assay [3], 50%; in assay [4], 42%.
On to `Oc1cncc(-c2ccc3[nH]c4ncnc(N[C@H]5CC[C@H](N6CCOCC6)CC5)c4c3c2)c1` [Compound 6aae, 5-(4-((trans-4-morpholinocyclohexyl)amino)-9H-pyrimido[4,5-b]indol-6-yl)pyridine-3-ol], for which the IC50 on IRAK4 enzyme is 0.002 µM. For the same compound, the inhibition at 1 µM against IRAK4 enzyme was 100%; in assay [1], 53%; in assay [2], 92%; in assay [3] it was 40%; in assay [4], 29%. Besides, the inhibition at 0.1 µM is 12% in assay [1], 48% in assay [2], less than 1% in assay [3] and 4% in assay [4].
For `Fc1ccc(-c2ccc3[nH]c4ncnc(N[C@H]5CC[C@H](N6CCOCC6)CC5)c4c3c2)cc1` [Compound 6aan, 6-(4-fluorophenyl)-N-(trans-4-morpholinocyclohexyl)-9H-pyrimido[4,5-b]indole-4-amine], the IC50 against IRAK4 enzyme was determined as 0.061 µM. Moreover, the inhibition at 1 µM at IRAK4 enzyme was determined as 82%; in assay [1] it was 32%; in assay [2] it was 71%; in assay [3], 28%; in assay [4], 6%. Further, the inhibition at 0.1 µM in assay [1] was 9%; in assay [2] it was 28%; in assay [3], less than 1%; in assay [4] it was less than 1%.
At IRAK4 enzyme, `N#Cc1cccc(-c2ccc3[nH]c4ncnc(N[C@H]5CC[C@H](N6CCOCC6)CC5)c4c3c2)c1` [Compound 6aak, 3-(4-((trans-4-morpholinocyclohexyl)amino)-9H-pyrimido[4,5-b]indol-6-yl) benzonitrile] returned an IC50 of 0.104 µM. Also, the inhibition at 1 µM against IRAK4 enzyme was 98%; in assay [1] it was 70%; in assay [2], 98%; in assay [3], 37%; in assay [4], 30%. In addition, the inhibition at 0.1 µM in assay [1] was 16%; in assay [2], 53%; in assay [3], less than 1%; in assay [4], less than 1%.
`c1cc(-c2ccc3c(c2)[nH]c2ncnc(N[C@H]4CC[C@H](N5CCOCC5)CC4)c23)ccn1` [Compound 6caa, N-(trans-4-morpholinocyclohexyl)-7-(pyridin-4-yl)-9H-pyrimido[4,5-b]indole-4-amine] registered an IC50 against IRAK4 enzyme of 1.36 µM. The inhibition at 1 µM was 50% on IRAK4 enzyme; 40% in assay [1]; 60% in assay [2]; 10% in assay [3]; 10% in assay [4]. Besides, the inhibition at 0.1 µM in assay [1] was determined as 5%; in assay [2], 40%; in assay [3], 5%; in assay [4], 1%.
For `c1cc(-c2ccc3[nH]c4ncnc(Nc5ccc(N6CCNCC6)cc5)c4c3c2)ccn1` [Compound 6agba, N-(4-(piperazin-1-yl)phenyl)-6-(pyridin-4-yl)-9H-pyrimido[4,5-b]indole-4-amine], the IC50 against IRAK4 enzyme is 1.19 µM. The inhibition at 1 µM against IRAK4 enzyme stood at 42%; in assay [1], 87%; in assay [2] it was 74%; in assay [3], 6%; in assay [4] it was 8%. Also, the inhibition at 0.1 µM was 26% in assay [1], 56% in assay [2], less than 1% in assay [3] and 6% in assay [4].
As for `c1cc(-c2ccc3[nH]c4ncnc(N[C@H]5CC[C@H](N6CCOCC6)CC5)c4c3c2)ccn1` [Compound 6aab, N-(trans-4-morpholinocyclohexyl)-6-(pyridin-4-yl)-9H-pyrimido[4,5-b]indole-4-amine], the IC50 against IRAK4 enzyme stood at 0.0184 µM. In addition, the inhibition at 1 µM worked out at 100% against IRAK4 enzyme; 114% in assay [1]; 94% in assay [2]; 61% in assay [3]; 54% in assay [4]. The inhibition at 0.1 µM is 44% in assay [1], 31% in assay [2], 8% in assay [3] and 11% in assay [4].
Compound `Cn1cc(-c2ccc3[nH]c4ncnc(N[C@H]5CC[C@H](N6CCOCC6)CC5)c4c3c2)cn1` [Compound 6aaa, 6-(1-methyl-1H-pyrazol-4-yl)-N-(trans-4-morpholinocyclohexyl)-9H-pyrimido[4,5-b]indole-4-amine] returned an IC50 on IRAK4 enzyme of 0.028 µM. In addition, the inhibition at 1 µM was 100% against IRAK4 enzyme; 42% in assay [1]; 21% in assay [2]; 71% in assay [3]; 55% in assay [4]. Also, the inhibition at 0.1 µM in assay [1] stood at 10.5%; in assay [2], 20%; in assay [3], 23%; in assay [4] it was 17%.
In turn, `COc1cccc(-c2ccc3[nH]c4ncnc(N[C@H]5CC[C@H](N6CCOCC6)CC5)c4c3c2)c1` [Compound 6aaj, 6-(3-methoxyphenyl)-N-(trans-4-morpholinocyclohexyl)-9H-pyrimido[4,5-b]indole-4-amine] registered an IC50 against IRAK4 enzyme of 0.159 µM. In addition, the inhibition at 1 µM was 99% on IRAK4 enzyme; 30% in assay [1]; 56% in assay [2]; 33% in assay [3]; 20% in assay [4]. In addition, the inhibition at 0.1 µM was 3.2% in assay [1], 6.4% in assay [2], less than 1% in assay [3] and 14% in assay [4].
